For one assay, the target named is T1, dopamine D2 receptor (Rattus norvegicus, UniProt P61169).
T1 construct: homogenized rat striatal brain tissue; from tissue; host or cells: rat striatum homogenate
In words: dopamine D2 receptor affinity, 3H-quinpirole, homogenized rat striatal brain tissue (modified Seemen and Schaus). In kind it is binding. On the procedure:
Affinity for the dopamine D2 receptor was established by a modification of the standard experimental test procedure of Seemen and Schaus, European Journal of Pharmacology 203: 105-109, 1991, wherein homogenized rat striatal brain tissue is incubated with ^3 H-quinpirole and various concentrations of test compound, filtered and washed and counted in a Betaplate scintillation counter.

For assay [1], the target named is T2, 5-HT1A serotonin receptor (Rattus norvegicus, UniProt P19327).
T2 construct: following the procedure of Hall et al., J. Neurochem; 44, 1685 (1985); from tissue
T2 sequence (P19327 1-422): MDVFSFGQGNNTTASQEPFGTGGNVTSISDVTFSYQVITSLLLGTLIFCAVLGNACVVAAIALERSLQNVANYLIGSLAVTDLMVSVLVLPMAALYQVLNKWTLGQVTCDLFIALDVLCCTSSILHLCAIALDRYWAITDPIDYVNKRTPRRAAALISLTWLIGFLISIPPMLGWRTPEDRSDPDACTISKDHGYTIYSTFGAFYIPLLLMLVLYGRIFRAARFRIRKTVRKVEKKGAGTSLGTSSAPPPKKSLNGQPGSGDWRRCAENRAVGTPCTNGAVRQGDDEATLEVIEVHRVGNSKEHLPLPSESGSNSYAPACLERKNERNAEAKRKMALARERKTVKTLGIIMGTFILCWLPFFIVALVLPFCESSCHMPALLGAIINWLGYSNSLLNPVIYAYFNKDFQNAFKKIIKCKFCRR
In words: displacement of [3H] 8-OHDPAT (dipropylaminotetralin) from the 5-HT1A serotonin receptor (Hall et al.). Type of assay: binding. Conditions: read-out: 5-HT1A Receptor Affinity IC50. An excerpt:
High affinity for the serotonin 5-HT1A receptor was established by testing the claimed compound's ability to displace [^3 H] 8-OHDPAT (dipropylaminotetralin) from the ^5 -HT1A serotonin receptor following the procedure of Hall et al., J. Neurochem. 44, 1685 (1985). […] The anxiolytic and antidepressant activity of these agents are believed to be, at least partially, due to their 5-HT1A receptor affinity (Vander Maclen et al., Eur. J. Pharmacol. 1986, 129 (1-2) […] and Lucki, J. Clin. Psychiat. 1992, 52, 24-31).
(Displacement assays read how much labelled ligand stays bound in the presence of the test substance.)

In assay [2] the test system is 3H 5-hydroxytryptamine uptake. In words: inhibition of 3H 5-hydroxytryptamine uptake, crude synaptosomes from rat frontal cortex (modified Wood and Willie). In kind it is biochemical. Conditions: nonspecific uptake in presence of 10 μM fluoxetine, read-out: Inhibition 5-HT Uptake IC50. On the procedure:
Inhibition of ^3 H 5-hydroxytryptamine uptake was established using a modification of the procedure of Wood and Willie, J. Neurochem. 37:795, 1981. Crude synaptosomes prepared from rat frontal cortex were utilized and nonspecific uptake was defined as that occurring in the presence of excess (10 μM) fluoxetine.

T1 sequence (P61169 whole entry): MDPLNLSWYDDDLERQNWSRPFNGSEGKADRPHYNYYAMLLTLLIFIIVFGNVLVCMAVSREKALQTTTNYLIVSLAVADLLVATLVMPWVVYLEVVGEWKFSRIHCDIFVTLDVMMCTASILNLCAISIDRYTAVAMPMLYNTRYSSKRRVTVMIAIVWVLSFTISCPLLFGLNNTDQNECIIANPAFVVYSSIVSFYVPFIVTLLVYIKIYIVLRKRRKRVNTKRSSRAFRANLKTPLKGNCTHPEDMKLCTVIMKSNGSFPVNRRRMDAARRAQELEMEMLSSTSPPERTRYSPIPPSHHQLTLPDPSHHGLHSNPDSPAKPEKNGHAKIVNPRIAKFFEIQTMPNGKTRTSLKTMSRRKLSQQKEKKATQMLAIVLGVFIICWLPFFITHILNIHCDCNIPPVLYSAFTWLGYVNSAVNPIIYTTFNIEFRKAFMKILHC

Consider `Cn1cc(CCCNCC2COc3ccc(NS(C)(=O)=O)cc3O2)c2ccccc21` (centres unmarked) [Example 24, N-(3-{[3-(1-Methyl-1H-indol-3-yl)-propylamino]-methyl}-2,3-dihydrobenzo[1,4]dioxin-6-yl)-methanesulfonamide], for which the values for the IC50 (against dopamine D2 receptor; in assay [1]) were 20.4 nM and 9.29 nM, respectively.

For `COc1ccc2[nH]cc(CCCCNCC3COc4ccccc4O3)c2c1` (centres unmarked) [Example 23, (2,3-Dihydro-benzo[1,4]dioxin-2-ylmethyl)-[4-(5-methoxy-1H-indol-3-yl)-butyl]-amine], the figures for the half-inhibitory concentration (IC50) (against dopamine D2 receptor; in assay [1]) were 6.63 nM and 0.56 nM, respectively.

Regarding `Fc1ccc2[nH]cc(CCCCNCC3COc4ccccc4O3)c2c1` (centres unmarked) [Example 18, (2,3-Dihydro-benzo[1,4]dioxin-2-ylmethyl)-[4-(5-fluoro-1H-indol-3-yl)-butyl]-amine], the IC50 (as a rule, the concentration needed to halve the response being measured) amounted to 18.4 nM against dopamine D2 receptor and 3.95 nM in assay [1].

As for `COc1ccc2c(c1)OC(CNCCCCc1c[nH]c3ccc(OC)cc13)CO2` (centres unmarked) [Example 9, (7-Methoxy-2,3-dihydro-benzo[1,4]dioxin-2-ylmethyl)-[4-(5-methoxy-1 H-indol-3-yl)-butyl]-amine], the IC50 came to 64 nM against dopamine D2 receptor, 0.8 nM in assay [1] and 738 nM in assay [2].

Turning to `COc1ccc2c(c1)OC(CN(C)CCCc1c[nH]c3ccc(OC)cc13)CO2` (centres unmarked) [Example 7, (7-Methoxy-2,3-dihydro-benzo[1,4]dioxin-2-ylmethyl)-[3-(5-methoxy-1H-indol-3-yl)-propyl]-methyl-amine], the IC50 against dopamine D2 receptor was determined as 1230 nM; in assay [1] it was 6.74 nM.

Regarding `CN(C)C/C=C(/c1ccc(Br)cc1)c1cccnc1` [zimelidine, reference compound], the IC50 in assay [2] came out at 240 nM.

Consider `COc1ccc2[nH]cc(CCCCNCC3COc4ccc(O)cc4O3)c2c1` (centres unmarked) [Example 10, 3-{[4-(5-Methoxy-1H-indol-3-yl)-butylamino]methyl}-2,3-dihydrobenzo[1,4]dioxin-6-ol], for which the figures for the IC50 (on dopamine D2 receptor; in assay [1]) were 0.39 nM and 1.94 nM, respectively.

With `Cn1cc(CCCCNCC2COc3ccccc3O2)c2cc(F)ccc21` (centres unmarked) [Example 22, (2,3-Dihydro-benzo[1,4]dioxin-2-ylmethyl)-{4-[5-fluoro-1-methyl-1H-(indole-3-yl)]-butyl}-amine], the figures for the IC50 (against dopamine D2 receptor; in assay [1]) were 49.8 nM and 16 nM, respectively.

Regarding `CS(=O)(=O)Nc1ccc2c(c1)O[C@@H](CNCCCc1c[nH]c3ccccc13)CO2` [Example 21, N-(3-{[3-(1H-Indol-3-yl)-propylamino]methyl}-2,3-dihydro-benzo[1,4]dioxin-6-yl)-methanesulfonamide], the IC50 was 0.76 nM on dopamine D2 receptor and 5.8 nM in assay [1].

Regarding `Oc1ccc2c(c1)O[C@@H](CNCCCc1c[nH]c3ccccc13)CO2` [Example 20, 3-{[3-(1H-Indol-3-yl)-propylamino]methyl}-2,3-dihydro-benzo[1,4]dioxin-6-ol], the IC50 turned out to be 0.13 nM on dopamine D2 receptor and 5.9 nM in assay [1].

Take `CNCCC(Oc1ccc(C(F)(F)F)cc1)c1ccccc1` (centres unmarked) [fluoxetine, reference compound]: the IC50 in assay [2] was determined as 71 nM.

For `Oc1ccc2c(c1)OC(CNCCCc1c[nH]c3ccc(O)cc13)CO2` (centres unmarked) [Example 8, 3-{3-[(7-Hydroxy-2,3-dihydro-benzo[1,4]dioxin-2-ylmethyl)-amino]-propyl}-1H-indol-5-ol], the IC50 was found to be 0.61 nM on dopamine D2 receptor and 0.35 nM in assay [1].

In the case of `COc1ccc2c(c1)OC(CNCCCCc1c[nH]c3ccc(F)cc13)CO2` (centres unmarked) [Example 19, [4-(5-Fluoro-1H-indole-3-yl)-butyl]-(7-methoxy-2,3-dihydro-benzo[1,4]dioxin-2-ylmethyl)-amine], the IC50 was 72 nM against dopamine D2 receptor and 5.5 nM in assay [1].

With `COc1ccc2[nH]cc(CCCCNCC3COc4ccc(NS(C)(=O)=O)cc4O3)c2c1` (centres unmarked) [Example 14, N-(3-{[4-(5-Methoxy-1 H-indol-3-yl)-butylamino]-methyl}-2,3-dihydrobenzo[1,4]dioxin-6-yl)-methanesulfonamide], the IC50 against dopamine D2 receptor is 4.75 nM; in assay [1], 0.81 nM.

Consider `COc1ccc2c(c1)OC(CNCCCc1c[nH]c3ccc(O)cc13)CO2` (centres unmarked) [Example 6, 3-{3-[(7-Methoxy-2,3-dihydro-benzo[1,4]dioxin-2-ylmethyl)-amino]-propyl}-1H-indol-5-ol], for which the IC50 against dopamine D2 receptor came out at 45 nM; in assay [1], 2.7 nM.

For `c1ccc(COc2ccc3[nH]cc(CCCNCC4COc5ccccc5O4)c3c2)cc1` (centres unmarked) [Example 4, [3-(5-Benzyloxy-1H-indol-3-yl)-propyl]-(2,3-dihydro-benzo[1,4]dioxin-2-ylmethyl)-amine], the IC50 against dopamine D2 receptor is 102 nM; in assay [1], 8.05 nM.

Consider `Oc1ccc2c(c1)OC(CNCCCc1c[nH]c3ccccc13)CO2` (centres unmarked) [Example 15, 3-{[4-(1H-Indol-3-yl)-propylamino]-methyl}-2,3-dihydro-benzo[1,4]dioxin-6-ol], for which the IC50 worked out at 0.3 nM at dopamine D2 receptor and 4.85 nM in assay [1].

In the case of `COc1ccc2c(c1)O[C@@H](CNCCCCc1c[nH]c3ccccc13)CO2` [Example 2, [4-(1H-Indol-3-yl)-butyl]-(7-methoxy-2,3-dihydro-benzo[1,4]dioxin-2-ylmethyl)amine], the IC50 against dopamine D2 receptor was determined as 82 nM; in assay [1] it was 5.7 nM.

As to `CN(C)CCCN1c2ccccc2CCc2ccccc21` [imipramine, reference compound], the IC50 in assay [2] turned out to be 120 nM.

Turning to `Fc1ccc2[nH]cc(CCCNCC3COc4ccccc4O3)c2c1` (centres unmarked) [Example 13, (2,3-Dihydro-benzo[1,4]dioxin-2-ylmethyl)-[3-(5-fluoro-1H-indol-3-yl)-propyl]-amine], the IC50 against dopamine D2 receptor turned out to be 8.13 nM; in assay [1], 0.12 nM; in assay [2], 154 nM.

Consider `c1ccc2c(c1)OCC(CNCCCc1c[nH]c3ccccc13)O2` (centres unmarked) [Example 17, (2.3-Dihydro-benzo[1,4]dioxin-2-ylmethyl)-[3-(1H-indol-3-yl)-propyl]-amine], for which the values for the IC50 (at dopamine D2 receptor; in assay [1]) were 3.5 nM and 3.77 nM, respectively.

Consider `Oc1ccc2c(c1)OC(CNCCCCc1c[nH]c3ccccc13)CO2` (centres unmarked) [Example 3, 3-{[4-(1H-Indol-3-yl)-butylamino}-methyl}-2,3-dihydro-benzo[1,4]dioxin-6-ol], for which the IC50 against dopamine D2 receptor was found to be 1.3 nM; in assay [1], 6 nM.

As to `COc1ccc2[nH]cc(CCCNCC3COc4ccccc4O3)c2c1` (centres unmarked) [Example 12, (2.3-Dihydro-benzo[1,4]dioxin-2-ylmethyl)-[3-(5-methoxy-1H-indol-3-yl)-propyl]-amine], the IC50 worked out at 1.55 nM against dopamine D2 receptor, 0.1 nM in assay [1] and 2380 nM in assay [2].

Take `c1ccc2c(c1)OCC(CNCCCCc1c[nH]c3ccccc13)O2` (centres unmarked) [Example 16, (2,3-Dihydro-benzo[1,4]dioxin-2-ylmethyl)-[4-(1H-indol-3-yl)-butyl]-amine]: the IC50 against dopamine D2 receptor is 13.6 nM; in assay [1] it was 4.86 nM.

Take `c1ccc2c(CCCCNC[C@H]3COc4cc5c(cc4O3)OCO5)c[nH]c2c1` [Example 1, [(6,7-Dihydro-1,3-dioxolo[4,5-g][1,4]benzodioxin-6-yl)methyl]-[4-(1H-indol-3-yl)-butyl]-amine]: the IC50 at dopamine D2 receptor is 116 nM; in assay [1], 5.6 nM.

As for `Oc1ccc2[nH]cc(CCCNCC3COc4ccccc4O3)c2c1` (centres unmarked) [Example 5, 3-{3-[(2,3-Dihydro-benzo[1,4]dioxin-2-ylmethyl)-amino]-propyl}-1H-indol-5-o], the IC50 was 6.5 nM on dopamine D2 receptor, 0.06 nM in assay [1] and 52 nM in assay [2].

(Values after patent publication US5750724A, “Indolealkyl derivatives of benzodioxanmethylamine” (American Home Products Corporation, priority 1996, dated 1998).)
